Series [1] has as its system B16 melanoma BL6. Put plainly: Antitumor effect in mice subcutaneously transplanted with B16 melanoma BL6. The format is in vivo, Mice (C57BL/6). The settings on record: for Therapeutic index: MTD/MED; for Effective dose range: range from MED to MTD, antitumor effect of 58% or more considered effective. An excerpt: (§1) Mice (C57BL/6, Charles River Japan) were subcutaneously transplanted with B16 melanoma BL6 (Cancer Res., Poste, G., Fidler, I. J. et al., 1980, 40:1636; Bioorg. Med. Chem. Lett., Takeda, Y. et al., 2003, 13:185-190), or M5076 (obtained from Japanese Foundation for Cancer Research), which is a histiocytoma expressing P-gp. Four days after the transplantation in the case of B16 melanoma BL6, or 8 to 10 days after the transplantation in the case of M5076, each test compound suspended in a 0.5% aqueous solution of carboxymethylcellulose sodium, or dissolved in EtOH:Tween 80:5% glucose=5:5:90 (v/v %) was orally (po) or intravenously (iv) administered to the mice. Ten days after the administration in the case of B16 melanoma BL6, or 8 to 10 days after the administration in the case of M5076, the mice were dissected, and tumor weights were measured. The antitumor effect was calculated in accordance with the following equation.
(§2) [1−(Average tumor weight of compound administration group/average tumor weight of solvent administration group)]×100
(§3) An antitumor effect of 58% or more was considered effective (Int. J. Cancer, 1989, 43:637-44), and the maximum tolerance dose (MTD, maximum dose not causing death, mg/kg) and minimum effective dose (MED, mg/kg) showing effectiveness were obtained, respectively. The therapeutic index was calculated in accordance with the equation: MTD/MED.
(§4) ND means that the test was not performed. The effective dose range means the range of from MED to MTD.

Series [2] can be described thus: Solubility in first and second solution for disintegration test (Japanese Pharmacopoeia). The format is physicochemical. The settings on record: for solubility: thermodynamic from solid. The protocol: Solubility of each compound was determined in the first solution for disintegration test according to Japanese Pharmacopoeia (henceforth referred to as the first solution, solution obtained by adding 7 mL of hydrochloric acid and water to 2.00 g of sodium chloride to dissolve sodium chloride and fill up the solution to 1000 mL, pH 1.2) and the second solution for disintegration test according to Japanese Pharmacopoeia (henceforth referred to as the second solution, solution obtained by adding 118 mL of 0.2 mol/L solution of sodium hydroxide to 6.80 g of potassium dihydrogenphosphate, adding water to the mixture to dissolve potassium dihydrogenphosphate and filling up the solution to 1000 mL, pH 6.8).
Each test compound was dissolved in 100% dimethyl sulfoxide (DMSO) at a concentration of 10 mM, and 50 μL of the solution was lyophilized. The lyophilized test compound was added with 250 μL of the first solution or second solution, and the mixture was stored at room temperature for 12 hours or longer under light shielding, and filtered (0.7 μm). The filtrate was taken in a volume of 90 μL, and added with 50% DMSO (90 μL) to obtain a two-fold diluted solubility sample. The two-fold dilution solubility sample was taken in a volume of 20 μL, and added with 50% DMSO (180 μL) to obtain a […] diluted solubility sample. Solubility of each test sample was determined by quantifying the test compound in the resulting diluted solubility test samples using high-performance liquid chromatography.

Series [3] has as its system M5076 (histiocytoma expressing P-gp). Kind of series: Antitumor effect in mice subcutaneously transplanted with M5076. The settings on record: for Therapeutic index: MTD/MED; for Effective dose range: range from MED to MTD, antitumor effect of 58% or more considered effective. It is filed as in vivo, Mice (C57BL/6).
Text: as §1, §2, §3, §4

Where [4] appears, read: aqueous buffer, second solution for disintegration test, pH 6.8, room temperature, 12 hours or longer, read-out: Solubility (μg/mL) pH 6.8.
Where [5] appears, read: simulated gastric fluid, first solution for disintegration test, pH 1.2, room temperature, 12 hours or longer, read-out: Solubility (μg/mL) pH 1.2.
The mark [6] stands for this setting: first solution for disintegration test, pH 1.2, room temperature, 12 hours or longer.
Setting [7] is: second solution for disintegration test, pH 6.8, room temperature, 12 hours or longer.

Structures are written as SMILES. Values after ≈ are worked out from the molar mass of the structure shown. Read-outs that look alike come from different tables or passages of the source.

On to `CC(=O)O[C@@]12CO[C@@H]1CC[C@@]1(C)[C@@H]3O[C@H](CN4CC(C(=O)N(C)C)C4)O[C@@H]3C3=C(C)[C@@H](OC(=O)[C@H](O)[C@@H](NC(=O)OC(C)(C)C)c4ccccn4)C[C@@](O)([C@@H](OC(=O)c4ccccc4)[C@@H]12)C3(C)C` [Example 9, (1S,2S,3R,4S,5R,8R,9S,10R,13S)-4-(Acetoxy)-2-(benzoyloxy)-9,10-{(1S)-[2-(3-dimethylcarbamoyl)azetidino]ethylidenedioxy}-5,20-epoxy-1-hydroxytax-11-en-13-yl (2R,3S)-3-(tert-butoxycarbonylamino)-2-hydroxy-3-(2-pyridyl)propionate], for which, in series [1] (B16 Melanoma BL6, po), the Therapeutic index is on record as 6.0. Also, the solubility in series [2] (setting [4]) was 130 µg/mL (≈ 137 µM); in series [2] (setting [5]), 1400 µg/mL (≈ 1480 µM).
In series [1] (B16 Melanoma BL6, po), `CC(=O)O[C@@]12CO[C@@H]1CC[C@@]1(C)[C@@H]3O[C@H](CN4CC(C)(O)C4)O[C@@H]3C3=C(C)[C@@H](OC(=O)[C@H](O)[C@@H](NC(=O)OC(C)(C)C)c4ncccc4F)C[C@@](O)([C@@H](OC(=O)c4ccccc4)[C@@H]12)C3(C)C` [Example 12, (1S,2S,3R,4S,5R,8R,9S,10R,13S)-4-(Acetoxy)-2-(benzoyloxy)-5,20-epoxy-1-hydroxy-9,10-[(1S)-2-(3-hydroxy-3-methylazetidino)ethylidenedioxy]tax-11-en-13-yl (2R,3S)-3-(tert-butoxycarbonylamino)-3-(3-fluoro-2-pyridyl)-2-hydroxypropionate] had a Therapeutic index of 4.1. Moreover, the solubility in series [2] (setting [4]) was 92 µg/mL (≈ 99.6 µM); in series [2] (setting [5]), 1100 µg/mL (≈ 1190 µM).
The corresponding values for `CC(=O)O[C@@]12CO[C@@H]1CC[C@@]1(C)[C@@H]3O[C@H](CN4CC[C@H]4CO)O[C@@H]3C3=C(C)[C@@H](OC(=O)[C@H](O)[C@@H](NC(=O)OC(C)(C)C)c4ccccn4)C[C@@](O)([C@@H](OC(=O)c4ccccc4)[C@@H]12)C3(C)C` [Example 21, (1S,2S,3R,4S,5R,8R,9S,10R,13S)-4-(Acetoxy)-2-(benzoyloxy)-5,20-epoxy-1-hydroxy-9,10-{(1S)-2-[(2S)-2-hydroxymethylazetidino]ethylidenedioxy}tax-11-en-13-yl (2R,3S)-3-(tert-butoxycarbonylamino)-2-hydroxy-3-(2-pyridyl)propionate] are 5.9, 150 µg/mL (≈ 166 µM) and > 1000 µg/mL.
Regarding `CC(=O)O[C@@]12CO[C@@H]1CC[C@@]1(C)[C@@H]3O[C@H](CN4CC[C@H]4CO)O[C@@H]3C3=C(C)[C@@H](OC(=O)[C@H](O)[C@@H](NC(=O)OC(C)(C)C)c4ncccc4F)C[C@@](O)([C@@H](OC(=O)c4ccccc4)[C@@H]12)C3(C)C` [Example 22, (1S,2S,3R,4S,5R,8R,9S,10R,13S)-4-(Acetoxy)-2-(benzoyloxy)-5,20-epoxy-1-hydroxy-9,10-{(1S)-2-[(2S)-2-hydroxymethylazetidino]ethylidenedioxy}tax-11-en-13-yl (2R,3S)-3-(tert-butoxycarbonylamino)-3-(3-fluoro-2-pyridyl)-2-hydroxypropionate], the Therapeutic index amounted to 2.0 in series [3] (M5076, iv); 2.0 in series [3] (M5076, po); 6.0 in series [1] (B16 Melanoma BL6, iv); 4.2 in series [1] (B16 Melanoma BL6, po). Besides, the “Effective dose range” value is 12.0 to 24.5 mg/kg in series [3] (M5076, iv) and 17.2 to 35 mg/kg in series [3] (M5076, po). Moreover, the solubility is 85 µg/mL (≈ 92 µM) in series [2] (setting [4]) and 1100 µg/mL (≈ 1190 µM) in series [2] (setting [5]).
`CC(=O)O[C@@]12CO[C@@H]1CC[C@@]1(C)[C@@H]3O[C@H](CN4CC[C@H]4C(=O)N(C)C)O[C@@H]3C3=C(C)[C@@H](OC(=O)[C@H](O)[C@@H](NC(=O)OC(C)(C)C)c4ccccn4)C[C@@](O)([C@@H](OC(=O)c4ccccc4)[C@@H]12)C3(C)C` [Example 23, (1S,2S,3R,4S,5R,8R,9S,10R,13S)-4-(Acetoxy)-2-(benzoyloxy)-9,10-{(1S)-2-[(2S)-2-(dimethylcarbamoyl)azetidino]ethylidenedioxy}-5,20-epoxy-1-hydroxytax-11-en-13-yl (2R,3S)-3-(tert-butoxycarbonylamino)-2-hydroxy-3-(2-pyridyl)propionate] registered a Therapeutic index in series [1] (B16 Melanoma BL6, po) of 2.9. In addition, the solubility was 1400 µg/mL (≈ 1480 µM) in series [2] (pH 1.2, simulated gastric fluid) and 360 µg/mL (≈ 380 µM) in series [2] (pH 6.8, aqueous buffer).
Turning to `CC(=O)O[C@@]12CO[C@@H]1CC[C@@]1(C)[C@@H]3O[C@H](CN4CC(S(C)(=O)=O)C4)O[C@@H]3C3=C(C)[C@@H](OC(=O)[C@H](O)[C@@H](NC(=O)OC(C)(C)C)c4ncccc4F)C[C@@](O)([C@@H](OC(=O)c4ccccc4)[C@@H]12)C3(C)C` [Example 28, (1S,2S,3R,4S,5R,8R,9S,10R,13S)-4-(Acetoxy)-2-(benzoyloxy)-5,20-epoxy-1-hydroxy-9,10-{(1S)-2-[3-(methanesulfonyl)azetidino]ethylidenedioxy}tax-11-en-13-yl (2R,3S)-3-(tert-butoxycarbonylamino)-3-(3-fluoro-2-pyridyl)-2-hydroxypropionate], in series [1] (B16 Melanoma BL6, po), the Therapeutic index is on record as 4.2. The solubility in series [2] (setting [4]) was 18 µg/mL (≈ 18.5 µM); in series [2] (setting [5]) it was 1300 µg/mL (≈ 1340 µM).
As to `CC(=O)O[C@@]12CO[C@@H]1CC[C@@]1(C)[C@@H]3O[C@H](CN4CCC4)O[C@@H]3C3=C(C)[C@@H](OC(=O)[C@H](O)[C@@H](NC(=O)OC(C)(C)C)C(F)F)C[C@@](O)([C@@H](OC(=O)c4ccccc4)[C@@H]12)C3(C)C` [Example 31, (1S,2S,3R,4S,5R,8R,9S,10R,13S)-4-(Acetoxy)-9,10-[(1S)-2-(azetidino)ethylidenedioxy]-2-(benzoyloxy)-5,20-epoxy-1-hydroxytax-1′-en-13-yl (2R,3R)-3-(tert-butoxycarbonylamino)-4,4-difluoro-2-hydroxybutyrate], the Therapeutic index in series [3] (M5076, iv) worked out at 1.0; in series [1] (B16 Melanoma BL6, iv), 2.9; in series [1] (B16 Melanoma BL6, po), 2.0. The “Effective dose range” value in series [3] (M5076, iv) was 10.0 mg/kg; in series [1] (B16 Melanoma BL6, iv) it was 3.43 to 10.0 mg/kg; in series [1] (B16 Melanoma BL6, po) it was 8.82 to 18.0 mg/kg. Also, the “Solubility (μg/mL) pH 1.2” value in series [2] (setting [6]) was 1000 μg/mL. Besides, the “Solubility (μg/mL) pH 6.8” value in series [2] (setting [7]) came to 160 μg/mL.
As to `CC(=O)OC12COC1CCC1(C)C3OC(CN4CCC4)OC3C3=C(C)C(OC(=O)C(O)C(CF)NC(=O)OC(C)(C)C)CC(O)(C(OC(=O)c4ccccc4)C12)C3(C)C` [Example 34, (1S,2S,3R,4S,5R,8R,9S,10R,13S)-4-(Acetoxy)-9,10-[(1S)-2-(azetidino)ethylidenedioxy]-2-(benzoyloxy)-5,20-epoxy-1-hydroxytax-11-en-13-yl (2R,3R)-3-(tert-butoxycarbonylamino)-4-fluoro-2-hydroxybutyrate], in series [1] (B16 Melanoma BL6, iv), the Therapeutic index worked out at 4.2 and the “Effective dose range” value lay within 10.1 to 42.0 mg/kg. Moreover, the “Solubility (μg/mL) pH 1.2” value in series [2] (setting [6]) amounted to 830 μg/mL. Further, the “Solubility (μg/mL) pH 6.8” value in series [2] (setting [7]) was 310 μg/mL.
`CC(=O)O[C@@]12CO[C@@H]1CC[C@@]1(C)[C@@H]3O[C@H](CN4CCC4)O[C@@H]3C3=C(C)[C@@H](OC(=O)[C@H](O)[C@@H](NC(=O)OC(C)(C)C)c4nccs4)C[C@@](O)([C@@H](OC(=O)c4ccccc4)[C@@H]12)C3(C)C` [Example 40, (1S,2S,3R,4S,5R,8R,9S,10R,13S)-4-(Acetoxy)-9,10-[(1S)-2-(azetidino)ethylidenedioxy]-2-(benzoyloxy)-5,20-epoxy-1-hydroxytax-11-en-13-yl (2R,3R)-3-(tert-butoxycarbonylamino)-2-hydroxy-3-(2-thiazolyl)propionate] gave a Therapeutic index in series [1] (B16 Melanoma BL6, iv) of 4.2. Moreover, the values for the solubility in series [2] (setting [4]) and in series [2] (setting [5]) were 150 µg/mL (≈ 170 µM) and 1000 µg/mL (≈ 1130 µM), respectively.
